Data published in patent US9458173B2, “Amides of 2-amino-4-arylthiazole compounds and their salts” (GLENMARK PHARMACEUTICALS S.A., priority 2012, dated 2016).
In brackets after ≈: the same amount, converted by molar mass. Like-named read-outs stand apart in the source and are kept apart here.

Experiments:
Format in all cases: physicochemical
[1] = Dissolution studies in suspension form; conditions: suspension: 10 mg active, Kollidon VA 64 40 mg, SLS 20 mg, purified water; batches 1A, 2A, 3A
Protocol: Suspension of compound of formula (II) and its salts with same composition was prepared using conventional homogenization technique. The % drug release was determined by comparing with 10 mg equivalent suspension (after sonication).

[2] = Solubility studies, shake flask method with HPLC quantification; conditions: 37° C., 200 rpm, about 15 minutes; for solubility: thermodynamic from solid, read-out: Solubility (Conc.)
Protocol: • Shake flask method was used to determine the solubility of compound in various bio-relevant media of different pH and quantification is done using HPLC method. II. Experimental:
Following bio-relevant media and water were selected to study the solubility behaviour. • i. FaSSIF (Fasted state simulated intestinal fluid) of pH 6.5 • ii. FeSSIF (Fed state simulated intestinal fluid) of pH 5.0 • iii. Water.
Procedure: Test substance (1 mg) was taken in a test tube and medium [FaSSIF (pH 6.5) or FeSSIF (pH 5.0) or water] was added in the increment of 1 ml with shaking. After completion of addition of 10 ml of media, test tubes containing sample solution were put on a mechanical shaker set at 37° C. and 200 rpm for shaking up to about 15 minutes. After shaking, the content of each flask, it was filtered through […] filter. The filtered solution was analysed using HPLC for quantification. A sample solution of 1 mg in 10 ml of DMSO was used as reference standard for quantifying dissolved test substance in each media. The solubility in each media is expressed as μg/ml (Table-10).

[3] = Hygroscopicity study, moisture content by Karl Fischer method; conditions: for moisture content, initial value: before exposure to humidity; for moisture content increase: 25° C., 48 hrs
Protocol: Hygroscopicity study was performed under the following conditions: The material was exposed to relative humidity (for example 60%, 80%, 90%) at 25° C. condition. The material was thinly spread in dried and pre-weighed Petri plate. The plate was exposed to the relative humidity conditions at 25° C. The Petri plate was withdrawn at regular intervals and weighed. Withdrawn samples were tested for description and moisture content by Karl Fischer method.

[4] = Stability studies of salts under storage, degradation products by HPLC
From the text: The salts of compound of formula II were stored under conditions as shown in Table 11 and a total amount of degradation products (related substances) and single maximum impurity formed during storage was estimated according to following protocol:
Apparatus: A High Performance Liquid Chromatograph equipped with quaternary gradient pumps, variable wavelength UV detector attached with data recorder and Integrator software or equivalent.
Column: Phenomenex Prodigy, 250 mm×4.6 mm, 5.0 or equivalent
Mobile phase: A: Buffer B: Acetonitrile (for sodium salt), acetonitrile:methanol (6:4) for potassium salt
Buffer: 0.1% Formic acid in water
Detection wavelength: UV 265 nm
Column temperature: 40° C.
10 mg of compound was weighed and transferred it into a 20 mL volumetric flask. Dimethylsulfoxide was added and it was sonicated to dissolve. The diluent was added to make up the solution to the mark of the flask.
The equal volumes of blank (diluent) and test solution were separately injected into the liquid chromatograph. The responses were recorded eliminating the peaks due to blank and the chromatographic purity by area was calculated by normalization method.
The salts of the compound of formula II were stored under conditions as shown in below table and a total amount of degradation products (related substances) as well as single maximum impurity formed during storage was estimated by HPLC. The material was packed in inner clear polythene bag under nitrogen lined with black polythene bag, covered with triple laminated aluminium bag placed in HDPE drum and subjected to the conditions mentioned in the table 11.

[5] = storage condition 1: 25 ± 2° C., 60 ± 5% RH, 0 months
[6] = storage condition 1: 25 ± 2° C., 60 ± 5% RH, 1 month
[7] = storage condition 1: 25 ± 2° C., 60 ± 5% RH, 2 months
[8] = storage condition 1: 25 ± 2° C., 60 ± 5% RH, 3 months
[9] = storage condition 1: 25 ± 2° C., 60 ± 5% RH, 6 months
[10] = storage condition 1: 25 ± 2° C., 60 ± 5% RH, 9 months
[11] = storage condition 2: 30 ± 2° C., 65 ± 5% RH, 0 months
[12] = storage condition 2: 30 ± 2° C., 65 ± 5% RH, 6 months
[13] = storage condition 3: 40 ± 2° C., 75 ± 5% RH, 0 months
[14] = storage condition 3: 40 ± 2° C., 75 ± 5% RH, 1 month
[15] = storage condition 3: 40 ± 2° C., 75 ± 5% RH, 2 months
[16] = storage condition 3: 40 ± 2° C., 75 ± 5% RH, 3 months
[17] = storage condition 3: 40 ± 2° C., 75 ± 5% RH, 6 months
[18] = storage condition 2: 30 ± 2° C., 65 ± 5% RH, 1 month
[19] = storage condition 2: 30 ± 2° C., 65 ± 5% RH, 2 months
[20] = storage condition 2: 30 ± 2° C., 65 ± 5% RH, 3 months

Row | SMILES | % drug release after 15 minutes [1] | Related substances [4, 5] | single max. impurity [4, 5] | Related substances [4, 6] | single max. impurity [4, 6] | Related substances [4, 7] | single max. impurity [4, 7] | Related substances [4, 8] | single max. impurity [4, 8] | Related substances [4, 9] | single max. impurity [4, 9] | Related substances [4, 10] | single max. impurity [4, 10] | Related substances [4, 11] | single max. impurity [4, 11] | Related substances [4, 12] | single max. impurity [4, 12] | Related substances [4, 13] | single max. impurity [4, 13] | Related substances [4, 14] | further results
1 | Cn1c(=O)c2c(CC(=O)Nc3nc(-c4ccc(F)c(C(F)(F)F)c4F)cs3)csc2n(C)c1=O [Compound (II), N-{4-[2,4-difluoro-3-(trifluoromethyl)phenyl]-1,3-thiazol-2-yl}-2-(1,3-dimethyl-2,4-dioxo-1,2,3,4-tetrahydrothieno[2,3-d]pyrimidin-5-yl)acetamide] | 0.40% | – | – | – | – | – | – | – | – | – | – | – | – | – | – | – | – | – | – | – | solubility ([2]; FaSSIF (fasted state simulated intestinal fluid), FaSSIF (pH 6.5)): 0.16 µg/mL (≈ 0.31 µM); solubility ([2]; FeSSIF (fed state simulated intestinal fluid), FeSSIF (pH 5.0)): 0.06 µg/mL (≈ 0.116 µM); solubility ([2]; Water): 0.1 µg/mL (≈ 0.194 µM)
2 | Cn1c(=O)c2c(CC(=O)Nc3nc(-c4ccc(F)c(C(F)(F)F)c4F)cs3)csc2n(C)c1=O.[K] [Potassium salt of N-{4-[2,4-difluoro-3-(trifluoromethyl)phenyl]-1,3-thiazol-2-yl}-2-(1,3-dimethyl-2,4-dioxo-1,2,3,4-tetrahydrothieno[2,3-d]pyrimidin-5-yl)acetamide in crystalline form] | – | – | – | – | – | – | – | – | – | – | – | – | – | – | – | – | – | – | – | – | moisture content after gradual increase ([3]; 48 hrs at 25° C./60% RH): about 3.5%; moisture content after gradual increase ([3]; 48 hrs at 25° C./80% RH): about 6.6%; moisture content after gradual increase ([3]; 48 hrs at 25° C./90% RH): about 16.0%; moisture content, initial value [3]: about 0.80%
3 | Cn1c(=O)c2c(CC(=O)Nc3nc(-c4ccc(F)c(C(F)(F)F)c4F)cs3)csc2n(C)c1=O.[K] [Potassium salt of compound (II), potassium salt of N-{4-[2,4-difluoro-3-(trifluoromethyl)phenyl]-1,3-thiazol-2-yl}-2-(1,3-dimethyl-2,4-dioxo-1,2,3,4-tetrahydrothieno[2,3-d]pyrimidin-5-yl)acetamide] | 6.3% | 0.44% | 0.26% | 0.45% | 0.27% | 0.31% | 0.19% | 0.43% | 0.26% | 0.35% | 0.21% | 0.35% | 0.21% | 0.44% | 0.26% | 0.51% | 0.31% | 0.44% | 0.26% | 0.44% | moisture content after gradual increase ([3]; 48 hrs at 25° C./60% RH, listed as potassium salt of compound of formula (II)): 3.5%; moisture content after gradual increase ([3]; 48 hrs at 25° C./80% RH, listed as potassium salt of compound of formula (II)): 6.6%; moisture content after gradual increase ([3]; 48 hrs at 25° C./90% RH, listed as potassium salt of compound of formula (II)): 16.0%; moisture content, initial value ([3]; listed as potassium salt of compound of formula (II)): 0.80%; moisture content increase ([3]; relative humidity of 60%): ≤ 2.7%; moisture content increase ([3]; relative humidity of 80%): ≤ 5.8%; moisture content increase ([3]; relative humidity of 90%): ≤ 15.2%; single max. impurity [4, 14]: 0.27%; Related substances [4, 15]: 0.32%; single max. impurity [4, 15]: 0.20%; Related substances [4, 16]: 0.46%; single max. impurity [4, 16]: 0.28%; Related substances [4, 17]: 0.52%; single max. impurity [4, 17]: 0.32%; Solubility (Conc.) ([2]; FaSSIF (pH 6.5)): 5.91 µg/mL; Solubility (Conc.) ([2]; FeSSIF (pH 5.0)): 5.53 µg/mL; Solubility (Conc.) ([2]; Water): 0.49 µg/mL
4 | Cn1c(=O)c2c(CC(=O)[N-]c3nc(-c4ccc(F)c(C(F)(F)F)c4F)cs3)csc2n(C)c1=O.[Na+] [Sodium salt of compound (II)] | 1.2% | 0.22% | 0.05% | 0.28% | 0.06% | 0.36% | 0.10% | 0.38% | 0.11% | 0.51% | 0.23% | 0.75% | 0.39% | 0.22% | 0.05% | 0.71% | 0.35% | 0.22% | 0.05% | 0.54% | Related substances [4, 18]: 0.30%; single max. impurity [4, 18]: 0.05%; Related substances [4, 19]: 0.40%; single max. impurity [4, 19]: 0.14%; Related substances [4, 20]: 0.47%; single max. impurity [4, 20]: 0.18%; single max. impurity [4, 14]: 0.22%; Related substances [4, 15]: 0.70%; single max. impurity [4, 15]: 0.36%; Related substances [4, 16]: 0.77%; single max. impurity [4, 16]: 0.39%; Related substances [4, 17]: 1.0%; single max. impurity [4, 17]: 0.58%; Solubility (Conc.) ([2]; FaSSIF (pH 6.5)): 1.07 µg/mL; Solubility (Conc.) ([2]; FeSSIF (pH 5.0)): 0.24 µg/mL; Solubility (Conc.) ([2]; Water): 0.13 µg/mL
